Measured values reported in paper PMC7272715, “Functional Characterization of Pseudoidium neolycopersici Photolyase Reveals Mechanisms Behind the Efficacy of Nighttime UV on Powdery Mildew Suppression” (Frontiers in Microbiology, 2020).

Target: T1, PnPHR1 (P. neolycopersici photolyase, PN0912) (Erysiphe neolycopersici, UniProt A0A7D3USA5)
T1 construct: GenBank MT277362-MT277364 printed for the three genes together (MT277363 only by order of listing)
T1 sequence (A0A7D3USA5 1-634): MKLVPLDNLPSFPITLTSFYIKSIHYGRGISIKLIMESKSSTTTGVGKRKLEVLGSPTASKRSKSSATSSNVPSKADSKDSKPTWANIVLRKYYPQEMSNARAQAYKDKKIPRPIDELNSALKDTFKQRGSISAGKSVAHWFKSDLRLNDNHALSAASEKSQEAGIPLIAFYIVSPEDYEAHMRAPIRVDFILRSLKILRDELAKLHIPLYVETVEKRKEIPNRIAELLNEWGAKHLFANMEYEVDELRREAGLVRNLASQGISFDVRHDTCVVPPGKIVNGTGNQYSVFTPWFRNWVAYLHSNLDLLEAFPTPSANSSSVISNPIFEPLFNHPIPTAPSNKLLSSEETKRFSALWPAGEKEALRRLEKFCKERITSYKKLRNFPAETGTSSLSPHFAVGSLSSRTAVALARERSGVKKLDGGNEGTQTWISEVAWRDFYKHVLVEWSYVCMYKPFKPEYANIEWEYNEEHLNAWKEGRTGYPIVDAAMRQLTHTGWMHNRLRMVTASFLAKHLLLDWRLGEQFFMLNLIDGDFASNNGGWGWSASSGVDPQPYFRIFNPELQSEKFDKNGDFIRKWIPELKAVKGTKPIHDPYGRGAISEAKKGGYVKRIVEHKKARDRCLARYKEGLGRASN
Experiment: absorption and fluorescence spectra of purified protein and of chromophore released by heat
Format: binding
Conditions: pH 8.0 storage buffer, 22 °C; intrinsic chromophore co-purified from E. coli; identity inferred from emission (excitation 370 nm); no clear absorption maximum

Cc1cc2c(cc1C)N(C[C@H](O)[C@H](O)[C@H](O)COP(=O)(O)OP(=O)(O)OC[C@H]1O[C@@H](n3cnc4c(N)ncnc43)[C@H](O)[C@@H]1O)c1[nH]c(=O)[nH]c(=O)c1N2 [FADH^–]
absorption and fluorescence spectra of purified protein and of chromophore relea: could only reveal the presence of a reduced form of FAD, i.e., FADH^–
